In patent US20110105389A1 (priority 2009, published 2011):
pIC50: −log10 of the molar value. Like-named read-outs stand apart in the source and are kept apart here.

Legend:
[1] = molecular target: T1, human ghrelin receptor (GRLN, growth hormone secretagogue receptor, hGHS-R1a) (Homo sapiens, UniProt Q92847); experiment: Competitive radioligand binding assay (ghrelin receptor), Method B1
T1 construct: purchased PerkinElmer BioSignal #RBHGHSM, lot#1887; host or cells: HEK-293 cells, stably transfected (membranes)
Method in brief: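 Membranes incubated with compound 30 min at rt in 25 mM Hepes pH 7.4, 1 mM CaCl2, 5 mM MgCl2, 2.5 mM EDTA, 0.4% BSA, max 0.1% DMSO; filtered on PEI-soaked GF/C, washed with cold Tris, scintillation counted. Curves fitted by variable-slope non-linear regression.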

[2] = molecular target: T2, GHS-R1a receptor (HEK293 cells expressing GHS-R1a receptor) (Homo sapiens, UniProt Q92847); experiment: Fluorescence functional assay (ghrelin receptor), Method B2, agonist and antagonist mode; assay type: cell-based; details: functional activity as an antagonist at the ghrelin receptor, Methods B2 and B3
T2 construct: host or cells: HEK293
Method in brief: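 Calcium flux read by ImageTrak epifluorescence in HEK293 cells stably expressing GHS-R1a, loaded 1 h at 37 °C with Calcium-3 dye; buffer HBSS/20 mM Hepes, pH 7.4, with probenecid and BSA. Agonists injected after 10 s baseline, read 50 s more; antagonists 3 min. Sigmoidal fits gave EC50 or IC50.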

[3] = Metabolic stability in human liver microsomes, Method B8; assay type: in vitro ADME; details: human liver microsomes 0.8 mg/mL, 5 μM compound, 37° C.
Method in brief: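 Pooled human liver microsomes (15 mixed-sex donors) at 0.8 mg/mL in 100 mM potassium phosphate, pH 7.4, with 1.5 mM NADPH and 8 mM MgCl2. Compounds tested in duplicate at a single 5 μM (0.05% DMSO), incubated at 37° C.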

[4] = Ghrelin receptor binding activity, Method B1

T1 sequence (Q92847 whole entry): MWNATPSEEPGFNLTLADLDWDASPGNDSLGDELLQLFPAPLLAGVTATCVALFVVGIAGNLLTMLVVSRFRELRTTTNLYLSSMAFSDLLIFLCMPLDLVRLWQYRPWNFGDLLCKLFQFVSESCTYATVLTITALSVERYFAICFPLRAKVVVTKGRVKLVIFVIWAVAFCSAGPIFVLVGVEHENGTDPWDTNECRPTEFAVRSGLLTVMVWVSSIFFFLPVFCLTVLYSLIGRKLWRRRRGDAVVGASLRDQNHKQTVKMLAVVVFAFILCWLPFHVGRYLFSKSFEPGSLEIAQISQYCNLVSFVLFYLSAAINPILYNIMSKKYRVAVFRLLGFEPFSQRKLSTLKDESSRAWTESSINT
T2 sequence (Q92847 whole entry): as above

SMILES | pIC50 [1] | Antagonist Activity [2] | HLM, metabolic stability in human liver microsomes [3] [μL/min/mg protein] | pIC50 [1, 4]
Cc1cccc(C[C@H]2NC(=O)[C@H](C(C)O)N(C)C(=O)[C@H](C(C)C)NCCOc3ccccc3C[C@H](O)CNC2=O)c1 (stereo partly shown) [Compound 1453] | 8.00 to 9.00 | B (B = 1-10 nM) | – | –
CC(C)[C@@H]1NCCOc2ccccc2C[C@H](O)[C@@H](C)NC(=O)[C@@H](Cc2cccc(F)c2)NC(=O)[C@H](C(C)O)N(C)C1=O (stereo partly shown) [Compound 1503] | 8.00 to 9.00 | B (B = 1-10 nM) | 20.9 | –
CC[C@@H]1CCc2ccc(F)cc2OCCN[C@@H](C(C)C)C(=O)N(C)[C@@H](C(C)O)C(=O)N[C@H](Cc2c[nH]c3ccccc23)C(=O)N1 (stereo partly shown) [Compound 1505] | 8.00 to 9.00 | B (B = 1-10 nM) | 51.5 | –
CC(C)[C@@H]1NCCOc2ccccc2C#C[C@@H](C)NC(=O)[C@@H](Cc2ccccc2)NC(=O)[C@H](C(C)O)N(C)C1=O (stereo partly shown) [Compound 1688] | 8.00 to 9.00 | A (A <1 nM) | 41.4 | –
CC(C)C1NCCOc2ccccc2C#CCNC(=O)C(Cc2c[nH]c3ccccc23)NC(=O)C(C(C)O)N(C)C1=O (stereo not shown) [Compound 1692] | – | C (C = 10-100 nM) | 121 | 8.00 to 9.00
CC(C)C1NCCOc2cc(F)ccc2C#CCNC(=O)C(Cc2c[nH]c3ccccc23)NC(=O)C(C(C)O)N(C)C1=O (stereo not shown) [Compound 1693] | – | C (C = 10-100 nM) | 83.8 | 7.00 to 8.00
CCC1CCc2ccc(F)cc2OCCNC(C2(C)CC2)C(=O)N(C)C(C(C)O)C(=O)NC(Cc2c[nH]c3ccccc23)C(=O)N1 (stereo not shown) [Compound 1703] | – | B (B = 1-10 nM) | 44.8 | 8.00 to 9.00
CC[C@@H]1C#Cc2ccc(F)cc2O[C@H](C)CN[C@@H](C2(C)CC2)C(=O)N(C)[C@@H](C(C)O)C(=O)N[C@H](Cc2c[nH]c3ccccc23)C(=O)N1 (stereo partly shown) [Compound 1707] | – | B (B = 1-10 nM) | 27.3 | 7.00 to 8.00
CC(C)[C@@H]1NCCOc2ccccc2C#CCNC(=O)[C@@H](Cc2ccccc2)NC(=O)[C@H](C(C)O)N(C)C1=O (stereo partly shown) [Compound 1712] | 8.00 to 9.00 | – | 58.2 | –
CC(O)[C@H]1C(=O)N[C@H](Cc2c[nH]c3ccccc23)C(=O)N[C@H](C)C#Cc2ccccc2OCCN[C@@H](C2(C)CC2)C(=O)N1C (stereo partly shown) [Compound 1713] | – | B (B = 1-10 nM) | 48.8 | 8.00 to 9.00
CC[C@@H]1C#Cc2ccccc2O[C@H](C)CN[C@@H](C2(C)CC2)C(=O)N(C)[C@@H](C(C)O)C(=O)N[C@H](Cc2c[nH]c3ccccc23)C(=O)N1 (stereo partly shown) [Compound 1718] | – | B (B = 1-10 nM) | 43.6 | 8.00 to 9.00
CC(O)[C@H]1C(=O)N[C@H](Cc2c[nH]c3ccccc23)C(=O)N[C@H](C)CCc2ccc(F)cc2O[C@H](C)CN[C@@H](C2(C)CC2)C(=O)N1C (stereo partly shown) [Compound 1719] | – | C (C = 10-100 nM) | 23.4 | 7.00 to 8.00
CC(O)[C@H]1C(=O)N[C@H](Cc2c[nH]c3ccccc23)C(=O)N[C@H](C)C#Cc2ccc(F)cc2O[C@H](C)CN[C@@H](C2(C)CC2)C(=O)N1C (stereo partly shown) [Compound 1720] | – | B (B = 1-10 nM) | 23.2 | 7.00 to 8.00
CC[C@@H]1C#Cc2c(F)cccc2OCCN[C@@H](C(C)C)C(=O)N(C)[C@@H](C(C)O)C(=O)N[C@H](Cc2c[nH]c3ccccc23)C(=O)N1 (stereo partly shown) [Compound 1726] | – | B (B = 1-10 nM) | 41.5 | 7.00 to 8.00
CC[C@@H]1CCc2ccc(F)cc2OCCN[C@@H](C2(C)CC2)C(=O)N(C)[C@@H](C(C)O)C(=O)N[C@H](Cc2ccccc2)C(=O)N1 (stereo partly shown) [Compound 1746] | – | B (B = 1-10 nM) | 38.6 | 8.00 to 9.00
CC[C@@H]1CCc2ccc(F)cc2OCCN[C@@H](C(C)C)C(=O)N(C)[C@@H](C(C)O)C(=O)N[C@H](Cc2ccc(O)cc2)C(=O)N1 (stereo partly shown) [Compound 1751] | – | B (B = 1-10 nM) | 109.6 | 8.00 to 9.00
CC[C@@H]1C#Cc2ccccc2OCCN[C@@H](C(C)C)C(=O)N(C)[C@@H](C(C)O)C(=O)N[C@H](Cc2c[nH]c3ccccc23)C(=O)N1 (stereo partly shown) [Compound 1754] | – | B (B = 1-10 nM) | 43.7 | 8.00 to 9.00
CC[C@@H]1C#Cc2ccc(F)cc2OCCN[C@@H](C(C)C)C(=O)N(C)[C@@H](C(C)O)C(=O)N[C@H](Cc2c[nH]c3ccccc23)C(=O)N1 (stereo partly shown) [Compound 1755] | – | B (B = 1-10 nM) | 47.8 | 8.00 to 9.00
CC(C)[C@@H]1NCC2CCc3cccc(c3O2)CCCNC(=O)[C@@H](Cc2ccccc2)NC(=O)[C@H](C(C)O)N(C)C1=O (stereo partly shown) [Compound 1777] | – | B (B = 1-10 nM) | 39.6 | 8.00 to 9.00
CC(O)[C@H]1C(=O)N[C@H](Cc2ccccc2)C(=O)NCCCc2cccc3c2OC(CC3)CN[C@@H](C2CC2)C(=O)N1C (stereo partly shown) [Compound 1778] | 7.00 to 8.00 | B (B = 1-10 nM) | 58.1 | –
CC[C@@H]1NCC2CCc3cccc(c3O2)CCCNC(=O)[C@@H](Cc2ccccc2)NC(=O)[C@H](C(C)O)N(C)C1=O (stereo partly shown) [Compound 1780] | 7.00 to 8.00 | B (B = 1-10 nM) | 25.3 | –
CC(C)[C@@H]1NCCOc2ccccc2C2CCC(C2)NC(=O)[C@@H](Cc2c[nH]c3ccccc23)NC(=O)[C@H](C(C)O)N(C)C1=O (stereo partly shown) [Compound 1843] | – | A (A <1 nM) | 33.7 | 7.00 to 8.00
CC(C)[C@@H]1NCCOc2ccccc2C2CCC(C2)NC(=O)[C@@H](Cc2ccccc2)NC(=O)[C@H](C(C)O)N(C)C1=O (stereo partly shown) [Compound 1848] | – | A (A <1 nM) | 60.7 | –
CC(O)[C@H]1C(=O)N[C@H](Cc2ccccc2)C(=O)NCC#Cc2c(F)cccc2OCCN[C@@H](C2(C)CC2)C(=O)N1C (stereo partly shown) [Compound 1876] | 8.00 to 9.00 | A (A <1 nM) | 30.9 | –
CC(O)[C@H]1C(=O)N[C@H](Cc2ccccc2)C(=O)NCC#Cc2ccccc2OCCN[C@@H](C2(C)CC2)C(=O)N1C (stereo partly shown) [Compound 1878] | 8.00 to 9.00 | A (A <1 nM) | 34.7 | –
CC(C)[C@@H]1NCCOc2ccccc2C2CCC(C2)NC(=O)[C@@H](Cc2ccc(F)cc2)NC(=O)[C@H](C(C)O)N(C)C1=O (stereo partly shown) [Compound 1903] | – | A (A <1 nM) | 47.9 | –
CC(O)[C@H]1C(=O)N[C@H](Cc2ccccc2)C(=O)NCC#Cc2ccc(F)cc2OCCN[C@@H](C2(C)CC2)C(=O)N1C (stereo partly shown) [Compound 1918] | 8.00 to 9.00 | B (B = 1-10 nM) | 14.3 | –
CC(C)[C@@H]1NCCOc2cccc(F)c2C#CCNC(=O)[C@@H](Cc2ccccc2)NC(=O)[C@H](C(C)O)N(C)C1=O (stereo partly shown) [Compound 1929] | 8.00 to 9.00 | B (B = 1-10 nM) | – | –
